Values of other authors, collected in patent publication US4535248A, “Method for detecting aflatoxin in almonds” (priority 1984, dated 1985).

Tested on: rats
Conditions: for estimated effective dose, hepatocarcinogens (for comparison): similar estimates for other hepatocarcinogens

Compound | effective dose for the induction of liver tumors (rat, in vivo) | estimated effective dose, hepatocarcinogens (for comparison)
COc1cc2c(c3oc(=O)c4c(c13)CCC4=O)[C@@H]1C=CO[C@@H]1O2 [B1] | approximately 10 mg per day | –
CN(C)c1ccc(N=Nc2ccccc2)cc1 [butteryellow] | – | 9,000 mg/day
CN(C)N=O [dimethylnitrosamine] | – | 750 mg/day
